Test results from patent US10144929B2, “Polypeptide inhibitors of Smad3 polypeptide activities” (Mayo Foundation for Medical Education and Research, priority 2016, dated 2018).
“Also recorded” adds a separate entry of the source.

Columns and labels:
[1] = biological target: T1, pSmad3 (Mus musculus, UniProt Q8BUN5); experiment: His pull down of pSmad3 by TAT-SNX9(SH3) fusion polypeptides; assay type: binding; settings: lysates of TGFβ treated AKR-2B cultures
T1 construct: endogenous in cells; host or cells: AKR-2B cells
Protocol: (§1) FIGS. 3A-E. Inhibition of Smad3 signaling by a defined region of the SH3 domain in SNX9. (A) Cartoon depicting constructs used for His pull down assays. AKR-2B lysates were incubated with the indicated TAT-SNX9(SH3) fusion polypeptide and immunoblotted for bound pSmad3 or total TAT-SNX9(SH3) fusion polypeptide (His). (B) Nuclear fractions were prepared and assessed as in FIG. 1B following transduction with the indicated TAT-SNX9(SH3) fusion polypeptide (Left). Quantitation (mean+/−sd) of nuclear pSmad2 or pSmad3 from 2 experiments (Right). (C) Immunofluorescence of nuclear Smad3 was determined as in FIG. 1C from 30 cells in each of two experiments in the absence (−) or presence (+) of 5 ng/mL TGFβ and the indicated TAT-SNX9(SH3) fusion polypeptide (1.5 μM). […]
FIGS. 4A-E. A point mutant of TAT-SH3-2 abolishes the inhibitory action on Smad3 responses. […] (E) AKR-2B cells were transiently transfected with a BMP (BRE), EGF (SRE), or PDGF (MMP-1) reporter construct and luciferase activity determined following 12 hour incubation in the absence (−) or presence (+) of the indicated ligand (10 ng/mL BMP4, EGF, or PDGF), inhibitor (10 μM Dorsomophin; 3 μM Lapatinib; 2 μM CP868) or TAT-SNX9(SH3) fusion polypeptide (1.5 μM). […]

[2] = tested on: Smad3 targets (PAI-1, CTGF, Smad7); experiment: RT-PCR/qPCR/Western of Smad3 responsive genes in AKR-2B cells; assay type: cell-based; settings: 5 ng/mL TGFβ, 24 hours
Protocol: (§2) FIGS. 2A-C. TAT-SH3 inhibits Smad3-dependent responses. (A) AKR-2B cells were transiently transfected with a Smad3 (3TP), Smad2 (ARE), or Smad1/5/8 (BRE) reporter construct, and luciferase activity determined following 12 hours incubation in the absence (−) or presence (+) of the indicated ligand (5 ng/mL TGFβ; 10 ng/mL BMP4) or TAT-SNX9(SH3) fusion polypeptide (1.5 μM). Data represent the mean+/−SEM of three experiments. (B) RT-PCR analysis of Smad3 (PAI-1 and CTGF) and Smad2 (MMP2) responsive gene following 24 hour treatment of AKR-2B cells with the indicated concentration of TAT-SNX9(SH3) fusion polypeptide or 5 ng/mL TGFβ. Loading was verified by GAPDH expression. (C) Soft agar colony formation was performed following seven days growth in the presence (+) or absence (−) of TGFβ (10 ng/mL) or the indicated TAT-SNX9(SH3) fusion polypeptide (1.5 μM). […]
as §1, with “(A) Cartoon depicting constructs used for His pull down assays. AKR-2B lysates were incubated with the indicated TAT-SNX9(SH3) fusion polypeptide and immunoblotted for bound pSmad3 or total TAT-SNX9(SH3) fusion polypeptide (His).” left out

[3] = tested on: AKR-2B cells; experiment: Soft agar colony formation (anchorage-independent growth, AIG); assay type: cell-based; settings: 1.5 μM polypeptide, TGFβ 10 ng/mL, seven days
Protocol: as §2
as §1, with “(A) Cartoon depicting constructs used for His pull down assays. AKR-2B lysates were incubated with the indicated TAT-SNX9(SH3) fusion polypeptide and immunoblotted for bound pSmad3 or total TAT-SNX9(SH3) fusion polypeptide (His).” left out

T1 sequence (Q8BUN5 whole entry, the tested form may be a part): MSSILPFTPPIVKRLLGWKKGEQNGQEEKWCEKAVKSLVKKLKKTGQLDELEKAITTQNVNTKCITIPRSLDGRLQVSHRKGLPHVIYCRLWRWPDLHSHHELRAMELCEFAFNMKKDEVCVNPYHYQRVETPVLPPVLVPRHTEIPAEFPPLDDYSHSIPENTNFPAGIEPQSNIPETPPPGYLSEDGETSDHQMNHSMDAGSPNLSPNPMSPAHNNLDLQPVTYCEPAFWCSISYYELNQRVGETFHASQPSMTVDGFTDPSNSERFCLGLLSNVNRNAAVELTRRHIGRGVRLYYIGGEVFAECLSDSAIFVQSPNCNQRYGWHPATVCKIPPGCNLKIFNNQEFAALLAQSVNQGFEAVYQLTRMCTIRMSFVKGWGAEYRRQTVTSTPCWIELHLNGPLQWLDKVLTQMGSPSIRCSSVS

Substance	pSmad3 binding [1]	TGFβ induction of Smad3 targets / Smad3-dependent transcriptional responses [2]	TGFβ-stimulated anchorage-independent growth in soft agar (AIG) [3]
TAT-SH3-2M: TAT-SH3-2 with G to V point mutations at amino acids 36-38; inactive TAT-SNX9 peptide unable to bind pSmad3 (TVNEGEIITITNPDVVVVWLEGRNIKGERGL; left off: small tags and cut ends)	unable to bind pSmad3	abolished the inhibitory effect	–
TAT-SH3-2: TAT-SNX9(SH3) fusion polypeptide having SNX9 amino acids 21-51 (31 mer) (TVNEGEIITITNPDVGGGWLEGRNIKGERGL; left off: small tags and cut ends)	bound pSmad3 to a similar degree as a TAT-SNX9(SH3) fusion polypeptide having the full length SH3 domain	prevented Smad3-dependent transcriptional responses; also recorded: prevented TGFβ induction of Smad3 targets such as CTGF, PAI-1, and Smad7 to a similar degree as inhibition of TβRI	prevented
